# From patent US10406191B2, “Compounds, extracts and methods from chinese medicinal herb sophora flavescens that inhibit airway contraction” (priority 2013, dated 2019)
# Entries after “also recorded” stand apart in the source; their conditions may differ. Where a name gives a salt, the structure may show the parent alone.
# Columns and labels:
# [1] = tested on: airway smooth muscle (ASM) in tracheal rings from OVA sensitized/challenged mice; assay: Inhibition of acetylcholine-induced ASM contraction in tracheal rings (ex vivo myography, 30 min pretreatment); set-up: species or system BALB/c mice; details: for ASM contraction to acetylcholine: isolated compound at 6.0 μg/ml, FIG. 6A/6B; for ASM contraction to acetylcholine / Ach-induced contraction (10-4 M Ach, percent of 60 mM KCL): 30 min pretreatment; for Ach-induced contraction (10-4 M Ach, percent of 60 mM KCL): 10 μg/ml (Matrine 40 μM, Sophocarpine 40 μM, Oxymatrine 37 μM); for Ach-induced contraction (10-4 M Ach, percent of 60 mM KCL) / relative potency among the matrine type alkaloids: FIGS. 12, 13; for relative potency among the matrine type alkaloids: 10 μg/ml
# Description: To determine which herbal constituents in ASHMI™ have a direct inhibitory effect on ASM contraction, an asthmatic mouse model was induced by ovalbumin (OVA) sensitization and challenge as described previously (Zhang et al., 2010). Tracheal rings from asthmatic mice were treated with an aq. extract of ASHMI™ (100 μg/ml), or individual herb aq. extracts, G. lucidum (35 μg/ml), S. flavescens (45 μg/ml) and G. uralenisis (20 μg/ml), for 30 min prior to ex vivo acetylcholine provocation. The ASHMI™ concentration was based on our previous publication (Zhang et al., 2010). Concentrations of individual herb extracts were equivalent to their individual concentrations in ASHMI™.
# Balb/c mice were sensitized by intraperitoneal (i.p.) injection of 200 μg OVA plus 2 mg of aluminum hydroxide (alum) in 400 μl of PBS on days 0 and 7. Mice were challenged intratracheally (i.t.) with 100 μg of OVA in 50 μl of PBS weekly for 2 weeks (days 14 and 21). Mice were challenged i.t. once daily with 100 μg of OVA (50 μl) on 2 consecutive days (days 28 and 29) 48 hr before sacrifice and tissue harvesting.
# Forty-eight hrs after the last i.t. OVA challenge, mice were sacrificed and tracheas were excised and cut into 3 tracheal rings as previously described. Each tracheal ring was attached to a pair of mounting pins in the organ chamber of a Myograph System Model 610M system (AD Instruments, Denver, Colo.) and bathed in a chamber containing physiological salt solution (PSS (In g/L—NaCl: 6.95, KCl: 0.35, MgSO4.7H2O: 0.28, KH2PO4: 0.1561, CaCl2.2H2O: 0.36, NaHCO3: 2.1, EDTA: 0.01, Glucose: 1.09, pH=7.4). All chambers were maintained at 37° C. and were continuously bubbled with 100% 02. The change of tracheal ring tension was recorded by Power Lab Chart recording software (AD Instruments). After incubation at 37° C. for 15 min at baseline tension, passive tension applied to the tracheal ring was adjusted to 1.00 mN. Following stabilization of passive tension, tracheal rings were contracted using 60 mM KCl twice, to assess ASM contractility. Tracheal rings were washed with PSS buffer 3 times and allowed to rest at 1.00 mN for 30 min after each stimulation. The individual compounds as indicated in FIG. 14 were dissolved in DMSO and then re-suspended in PBS (DMSO <0.1%). Each drug was added to the chamber at the concentrations indicated and the pre-incubation time was 30 min. Tracheal rings were then contracted with incremental doses of acetylcholine (from 10^-8 M to 10^-4 M). PBS (vehicle) treatment was used as control.
# [2] = tested on: tracheal tissue (rings); assay: Tracheal ring viability: contractile response to KCl after washout; set-up: species or system mouse; details: 10 μg/ml
# Description: FIG. 12. Representative real time tracing of murine tracheal ring contractions. Rings were first stimulated with 60 mM KCL to assess contractile potential. Compounds (Matrine (40 μM), Oxymatrine (37 μM), sophocarpine (40 μM) or PSS (vehicle) were added 30 minutes prior to stimulation with 10^-4 M Ach. Ring viability was tested 90 minutes after Ach washout.
# We first generated a methylene chloride (MC) extract from an aq. extract of S. flavescens to obtain a flavonoid rich extract (designated MC extract, FIG. 2). […] We next generated 5 sub-fractions (MC-F1, 2, 3, 4 and 5) using preparative HPLC and tested each at 6.0 μg/ml. […] The inhibition of ASM contraction by MC-F1 was concentration-dependent (FIG. 4B) and non-toxic as contractile responses to KCl were present after buffer washings (FIG. 4C).
# Having observed that Fraction 3 of S. flavescens was a potent inhibitor of Ach-stimulated tracheal contraction we tested major compounds present in this fraction in myography experiments. According to investigations using mass spectrometric techniques, the major compounds identified in SF Fraction 3 were the matrine type alkaloids-Matrine, Oxymatrine and Sophocarpine.
# [3] = tested on: acetylcholine pre-contracted sensitized murine tracheal rings (ASM); assay: Relaxation of acetylcholine pre-contracted tracheal rings; set-up: species or system mouse; details: for effect of co-incubation with β2-AR antagonist ICI 118,551 on relaxation: FIG. 7A/7B
# Description: FIGS. 7A-7C. Relaxation effects of trifolirhizin or the β2-AR agonist fenoterol on acetylcholine pre-contracted ASM. (A). The relaxation effect of trifolirhizin on acetylcholine-stimulated tracheal rings with or without ICI 118,551 (ICI). (B). The relaxation effect of the β2-AR agonist fenoterol on acetylcholine-contracted tracheal rings with or without ICI 118,551; Relaxation is expressed as the percent of residual contractile tone remaining at 15 min after trifolirhizin or fenoterol addition. (C). Representative myography tracings of relaxation experiment using fenoterol (upper tracing), PBS control (middle tracing) or trifolirhizin- (lower tracing) treated sensitized mouse tracheal rings (***, p≤0.001 compared to PBS control). Note the magnitude of total relaxation achieved with trifolirhizin compared to the β2-AR agonist fenoterol.
# The primary therapy for acute constriction of airway smooth muscle is β2-AR agonists which are inhaled for the acute relaxation of hyperresponsive airway smooth muscle. We performed studies with trifolirhizin to determine whether it could relax pre-contracted airway smooth muscle and how the magnitude of relaxation compared to a classic β2-AR agonist fenoterol. In order to investigate the relaxation effect of trifolirhizin on ASM, we tested this isolated compound on acetylcholine pre-contracted sensitized murine tracheal rings. […] The maximal relaxation was 85% of the initial contractile tone at a trifolirhzin concentration of 20 μg/ml (FIG. 7A). In parallel studies the β2-AR agonist fenoterol only achieved 25% relaxation even at the highest concentration tested (10^-5 M).
# [4] = tested on: airway resistance in response to methacholine; assay: Airway resistance to nebulized methacholine, forced oscillation technique (Flexivent); assay type: in vivo, male A/J mice; details: nebulized 25 ul of 60 ug/ml, 15 minutes before nebulized methacholine; N=3; FIG. 15
# Description: FIG. 15: Airway resistance in male A/J 20 g mice pretreated with nebulization of vehicle (25 ul 0.3% DMSO) or trifolirhizin (25 ul of 60 ug/ml) 15 minutes before nebulized methacholine as measured by the forced oscillation technique (Flexivent, Scireq). N=3.
smiles,measurement,setting,value
"COc1ccc(-c2coc3cc(O)ccc3c2=O)cc1O [3′,7-dihydroxy-4′-methoxy-isoflavone]",ASM contraction to acetylcholine,[1],had no effect on ASM contraction
"C[C@@H]1C[C@H]2[C@@H]3CCC4=CC(=O)C=C[C@]4(C)[C@@]3(F)[C@@H](O)C[C@]2(C)[C@@]1(O)C(=O)CO [Dexamethasone, dexamethasone, reference compound]",acetylcholine-induced ASM contractions,"[1]; 10 μM acute pretreatment, FIG. 6D",did not inhibit
O=C1CCC[C@@H]2[C@H]3CCCN4CCC[C@@H](CN12)[C@@H]34 [Matrine],effect of Indomethacin on the suppressive effect on tracheal contractility,[1],inhibited by Indomethacin
same,"Ach-induced contraction (10-4 M Ach, percent of 60 mM KCL)",[1],inhibited Ach-induced contraction
same,relative potency among the matrine type alkaloids,[1],most potent; also recorded: more effective than Oxymatrine
same,toxicity to tracheal tissue (response to KCL 90 minutes after washout),[2],did not exhibit toxicity to tracheal tissue
O=C1CCC[C@@H]2[C@H]3CCC[N+]4([O-])CCC[C@@H](CN12)[C@@H]34 (stereo partly shown) [Oxymatrine],effect of Indomethacin on the suppressive effect on tracheal contractility,[1],inhibited by Indomethacin
same,"Ach-induced contraction (10-4 M Ach, percent of 60 mM KCL)",[1],inhibited Ach-induced contraction
same,relative potency among the matrine type alkaloids,[1],weakest inhibitor of contraction
O=C1C=CC[C@@H]2[C@H]3CCCN4CCC[C@@H](CN12)[C@@H]34 [Sophocarpine],effect of Indomethacin on the suppressive effect on tracheal contractility,[1],inhibited by Indomethacin
same,"Ach-induced contraction (10-4 M Ach, percent of 60 mM KCL)",[1],inhibited Ach-induced contraction
same,relative potency among the matrine type alkaloids,[1],more effective than Oxymatrine
"CC(Cc1ccc(O)cc1)NCC(O)c1cc(O)cc(O)c1 (stereo not shown) [fenoterol, fenoterol hydrobromide, reference compound]","effect of co-incubation with β2-AR antagonist ICI 118,551 on relaxation",[3],completely blocked
same,relaxation achieved,"[3]; highest concentration tested (10^-5 M), parallel studies, FIG. 7B",25%
same,time course of relaxation effect,[3]; increasing time of incubation,slowly lost its effect
OC[C@H]1O[C@@H](Oc2ccc3c(c2)OC[C@H]2c4cc5c(cc4O[C@@H]32)OCO5)[C@H](O)[C@@H](O)[C@@H]1O [trifolirhizin],acetylcholine-induced contraction,"[1]; concentrations lower than 6.0 μg/ml, FIG. 6B",not at lower concentrations
same,ASM contraction to acetylcholine,[1],significantly inhibited acetylcholine-induced contraction
same,"effect of β2-AR antagonist ICI 118,551 on the compound's blockade of acetylcholine contraction","[1]; trifolirhizin 6.0 μg/ml with ICI 118,551 150 μM, 30 min preincubation, FIG. 6C",had no effect; also recorded: did not block the effect
same,maximal relaxation (of the initial contractile tone),"[3]; 20 μg/ml, 10^-5 M acetylcholine pre-contraction, FIG. 7A",85%
same,"effect of co-incubation with β2-AR antagonist ICI 118,551 on relaxation",[3],without effect
same,"relaxation of pre-contracted tracheal rings, dose dependence","[3]; rings stimulated by 10^-5 M acetylcholine, FIG. 7A",dose-dependent manner
same,airway resistance in response to methacholine,[4],significantly attenuated increased airway resistance
